Key:
Experiment in all cases: radiometric filter-binding kinase assay, Kinase HotSpot
Conditions in all cases: compound 0.5 µM; ATP 10 µM
PRKCB2 (human) = PRKCB2 (human) (UniProt P05771)
PRKCH (human) = PRKCH (human) (UniProt P24723)
JAK2 JH1 JH2 (human) = JAK2 JH1 JH2 (human) (UniProt O60674)
STK39 (human) = STK39 (human) (UniProt Q9UEW8)
MAPK10 (human) = MAPK10 (human) (UniProt P53779)
PAK4 (human) = PAK4 (human) (UniProt O96013)
TBK1 (human) = TBK1 (human) (UniProt Q9UHD2)
CSNK2A2 (human) = CSNK2A2 (human) (UniProt P19784)
PIM3 (human) = PIM3 (human) (UniProt Q86V86)
NUAK1 (human) = NUAK1 (human) (UniProt O60285)
SIK2 (human) = SIK2 (human) (UniProt Q9H0K1)
CSNK1G3 (human) = CSNK1G3 (human) (UniProt Q9Y6M4)
CAMK2D (human) = CAMK2D (human) (UniProt Q13557)
IRAK1 (human) = IRAK1 (human) (UniProt P51617)
CSNK1A1 (human) = CSNK1A1 (human) (UniProt P48729)
EPHB1 (human) = EPHB1 (human) (UniProt P54762)
TSSK2 (human) = TSSK2 (human) (UniProt Q96PF2)
PAK7 (human) = PAK7 (human) (UniProt Q9P286)
MAPKAPK5 (human) = MAPKAPK5 (human) (UniProt Q8IW41)
MAPKAPK5 (human), sequence (Q8IW41 whole entry, looked up): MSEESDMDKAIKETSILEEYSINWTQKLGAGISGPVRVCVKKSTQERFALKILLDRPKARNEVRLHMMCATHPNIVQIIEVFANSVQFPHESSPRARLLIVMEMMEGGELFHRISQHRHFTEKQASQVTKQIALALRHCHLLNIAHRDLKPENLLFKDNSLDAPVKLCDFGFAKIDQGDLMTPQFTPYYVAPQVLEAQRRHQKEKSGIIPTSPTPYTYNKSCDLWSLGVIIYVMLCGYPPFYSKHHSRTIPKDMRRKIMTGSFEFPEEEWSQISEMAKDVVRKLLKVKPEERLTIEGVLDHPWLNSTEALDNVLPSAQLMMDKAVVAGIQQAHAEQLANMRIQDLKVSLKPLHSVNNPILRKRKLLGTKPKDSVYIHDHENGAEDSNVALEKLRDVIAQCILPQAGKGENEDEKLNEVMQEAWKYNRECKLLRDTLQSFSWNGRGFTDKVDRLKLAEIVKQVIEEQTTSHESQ

IKBKB (human) = IKBKB (human) (UniProt O14920)
IKBKB (human), sequence (O14920 whole entry, looked up): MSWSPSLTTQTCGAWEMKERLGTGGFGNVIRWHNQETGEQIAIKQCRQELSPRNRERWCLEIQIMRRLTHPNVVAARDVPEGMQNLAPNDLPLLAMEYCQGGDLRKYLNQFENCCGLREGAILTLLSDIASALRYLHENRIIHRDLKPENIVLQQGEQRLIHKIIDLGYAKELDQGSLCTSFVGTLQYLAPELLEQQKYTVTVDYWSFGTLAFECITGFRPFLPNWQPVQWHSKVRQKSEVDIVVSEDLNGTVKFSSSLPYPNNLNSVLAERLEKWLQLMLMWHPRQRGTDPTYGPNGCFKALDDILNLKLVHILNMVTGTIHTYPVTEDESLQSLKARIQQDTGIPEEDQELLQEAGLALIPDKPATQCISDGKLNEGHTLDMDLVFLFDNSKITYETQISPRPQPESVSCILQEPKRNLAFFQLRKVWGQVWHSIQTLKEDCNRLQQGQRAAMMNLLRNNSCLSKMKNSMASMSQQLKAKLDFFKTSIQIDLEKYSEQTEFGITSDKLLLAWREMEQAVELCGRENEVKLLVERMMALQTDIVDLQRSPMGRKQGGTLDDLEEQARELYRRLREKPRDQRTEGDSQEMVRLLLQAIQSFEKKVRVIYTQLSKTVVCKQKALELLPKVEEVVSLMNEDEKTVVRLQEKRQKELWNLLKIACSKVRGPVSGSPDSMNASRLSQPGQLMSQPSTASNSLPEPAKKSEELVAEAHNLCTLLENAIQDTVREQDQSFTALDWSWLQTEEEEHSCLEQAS

PRKD2 (human) = PRKD2 (human) (UniProt Q9BZL6)
MAPK11 (human) = MAPK11 (human) (UniProt Q15759)
CLK4 (human) = CLK4 (human) (UniProt Q9HAZ1)
ABL2 (human) = ABL2 (human) (UniProt P42684)
[1] = biological target: JAK1 JH1 catalytic (human) (UniProt P23458)
ROCK2 (human) = ROCK2 (human) (UniProt O75116)
CDK4 CCND1 (human) = CDK4 CCND1 (human) (UniProt P24385+P11802)
STK17A (human) = STK17A (human) (UniProt Q9UEE5)
STK17A (human), sequence (Q9UEE5 whole entry, looked up): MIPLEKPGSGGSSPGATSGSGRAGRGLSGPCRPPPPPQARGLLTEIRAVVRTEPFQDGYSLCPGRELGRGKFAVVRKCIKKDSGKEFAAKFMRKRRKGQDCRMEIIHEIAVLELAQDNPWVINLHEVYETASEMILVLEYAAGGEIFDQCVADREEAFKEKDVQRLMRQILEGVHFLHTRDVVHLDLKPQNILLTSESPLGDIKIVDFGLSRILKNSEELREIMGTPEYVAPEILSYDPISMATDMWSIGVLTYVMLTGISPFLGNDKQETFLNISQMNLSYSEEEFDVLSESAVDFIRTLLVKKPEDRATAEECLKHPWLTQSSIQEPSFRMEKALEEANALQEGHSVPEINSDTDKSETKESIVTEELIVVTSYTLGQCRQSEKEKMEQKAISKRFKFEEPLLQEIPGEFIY

MARK4 (human) = MARK4 (human) (UniProt Q96L34)
MARK4 (human), sequence (Q96L34 whole entry, looked up): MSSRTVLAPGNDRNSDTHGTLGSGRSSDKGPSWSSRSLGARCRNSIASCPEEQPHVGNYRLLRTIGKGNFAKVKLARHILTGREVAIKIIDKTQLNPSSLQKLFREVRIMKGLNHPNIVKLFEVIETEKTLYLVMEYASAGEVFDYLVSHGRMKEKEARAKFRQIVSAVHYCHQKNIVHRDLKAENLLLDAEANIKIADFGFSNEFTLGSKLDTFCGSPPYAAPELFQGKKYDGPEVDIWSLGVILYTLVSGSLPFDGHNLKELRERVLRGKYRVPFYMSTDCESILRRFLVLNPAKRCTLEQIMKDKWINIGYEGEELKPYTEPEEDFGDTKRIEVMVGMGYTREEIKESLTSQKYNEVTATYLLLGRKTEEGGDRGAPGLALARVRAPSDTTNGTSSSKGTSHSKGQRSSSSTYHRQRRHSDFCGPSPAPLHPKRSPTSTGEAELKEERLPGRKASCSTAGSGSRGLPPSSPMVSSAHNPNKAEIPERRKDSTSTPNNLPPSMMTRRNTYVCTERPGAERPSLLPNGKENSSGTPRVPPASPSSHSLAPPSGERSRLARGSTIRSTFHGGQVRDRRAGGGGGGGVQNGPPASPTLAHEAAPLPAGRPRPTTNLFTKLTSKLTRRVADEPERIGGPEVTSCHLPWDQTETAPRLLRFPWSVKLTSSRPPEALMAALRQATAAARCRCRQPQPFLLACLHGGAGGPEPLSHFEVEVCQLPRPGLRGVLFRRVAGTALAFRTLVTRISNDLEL

MAP3K11 (human) = MAP3K11 (human) (UniProt Q16584)
MAP3K11 (human), sequence (Q16584 whole entry, looked up): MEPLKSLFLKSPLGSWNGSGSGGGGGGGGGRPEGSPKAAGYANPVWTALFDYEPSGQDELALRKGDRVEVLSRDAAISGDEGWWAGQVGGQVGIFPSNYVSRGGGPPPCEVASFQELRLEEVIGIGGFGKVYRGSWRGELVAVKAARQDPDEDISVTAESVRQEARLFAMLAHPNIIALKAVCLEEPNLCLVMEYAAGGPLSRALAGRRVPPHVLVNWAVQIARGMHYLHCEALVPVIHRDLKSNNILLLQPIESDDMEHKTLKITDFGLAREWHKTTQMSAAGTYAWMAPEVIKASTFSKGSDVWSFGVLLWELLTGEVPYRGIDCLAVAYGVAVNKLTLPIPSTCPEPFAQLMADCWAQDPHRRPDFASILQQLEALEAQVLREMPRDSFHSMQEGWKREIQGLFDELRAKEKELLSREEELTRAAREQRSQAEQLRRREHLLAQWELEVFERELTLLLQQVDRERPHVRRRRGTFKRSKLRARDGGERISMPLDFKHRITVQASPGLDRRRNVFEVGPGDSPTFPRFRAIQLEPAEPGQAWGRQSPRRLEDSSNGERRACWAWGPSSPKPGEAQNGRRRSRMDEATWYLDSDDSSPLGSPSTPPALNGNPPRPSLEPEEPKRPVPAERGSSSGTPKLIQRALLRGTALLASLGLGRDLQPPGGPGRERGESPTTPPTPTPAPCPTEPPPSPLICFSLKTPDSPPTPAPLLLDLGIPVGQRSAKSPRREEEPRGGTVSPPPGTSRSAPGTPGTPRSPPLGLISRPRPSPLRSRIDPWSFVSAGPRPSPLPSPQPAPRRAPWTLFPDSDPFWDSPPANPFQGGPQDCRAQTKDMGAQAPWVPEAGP

PRKCD (human) = PRKCD (human) (UniProt Q05655)
ROS1 (human) = ROS1 (human) (UniProt P08922)
DYRK4 (human) = DYRK4 (human) (UniProt Q9NR20)
ABL1 (human) = ABL1 (human) (UniProt P00519)
CHEK1 (human) = CHEK1 (human) (UniProt O14757)
ROCK1 (human) = ROCK1 (human) (UniProt Q13464)
DYRK1B (human) = DYRK1B (human) (UniProt Q9Y463)
MAPK8 (human) = MAPK8 (human) (UniProt P45983)
MAPK8 (human), sequence (P45983 whole entry, looked up): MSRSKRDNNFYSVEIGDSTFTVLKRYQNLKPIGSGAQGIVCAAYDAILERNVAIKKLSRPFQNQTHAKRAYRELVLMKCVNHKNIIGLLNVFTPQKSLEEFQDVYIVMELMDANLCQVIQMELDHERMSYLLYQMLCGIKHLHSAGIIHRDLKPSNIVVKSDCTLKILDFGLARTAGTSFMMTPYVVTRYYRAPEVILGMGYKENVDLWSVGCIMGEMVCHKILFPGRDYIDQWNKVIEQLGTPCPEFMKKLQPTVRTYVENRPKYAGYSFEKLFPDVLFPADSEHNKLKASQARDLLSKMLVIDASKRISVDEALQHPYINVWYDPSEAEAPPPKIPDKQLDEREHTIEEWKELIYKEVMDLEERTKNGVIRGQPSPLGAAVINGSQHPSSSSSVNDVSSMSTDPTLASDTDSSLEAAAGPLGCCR

MAPK3 (human) = MAPK3 (human) (UniProt P27361)

PAK4 (human), sequence (O96013 whole entry, looked up): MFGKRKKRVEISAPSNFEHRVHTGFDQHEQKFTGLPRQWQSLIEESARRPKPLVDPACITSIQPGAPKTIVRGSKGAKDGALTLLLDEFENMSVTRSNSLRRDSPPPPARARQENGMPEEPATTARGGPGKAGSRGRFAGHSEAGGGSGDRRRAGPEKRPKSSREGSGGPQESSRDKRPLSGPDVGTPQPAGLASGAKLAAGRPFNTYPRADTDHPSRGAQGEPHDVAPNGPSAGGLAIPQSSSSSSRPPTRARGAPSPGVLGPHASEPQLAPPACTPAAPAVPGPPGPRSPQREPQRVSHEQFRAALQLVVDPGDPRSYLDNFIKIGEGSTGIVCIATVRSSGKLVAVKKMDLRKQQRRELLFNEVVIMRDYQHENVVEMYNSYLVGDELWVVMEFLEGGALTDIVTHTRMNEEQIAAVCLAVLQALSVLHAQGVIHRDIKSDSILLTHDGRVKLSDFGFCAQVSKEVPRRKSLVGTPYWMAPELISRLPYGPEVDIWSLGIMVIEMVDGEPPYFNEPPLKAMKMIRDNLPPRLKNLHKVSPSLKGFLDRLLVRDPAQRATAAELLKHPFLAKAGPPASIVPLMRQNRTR
MAPK10 (human), sequence (P53779 whole entry, looked up): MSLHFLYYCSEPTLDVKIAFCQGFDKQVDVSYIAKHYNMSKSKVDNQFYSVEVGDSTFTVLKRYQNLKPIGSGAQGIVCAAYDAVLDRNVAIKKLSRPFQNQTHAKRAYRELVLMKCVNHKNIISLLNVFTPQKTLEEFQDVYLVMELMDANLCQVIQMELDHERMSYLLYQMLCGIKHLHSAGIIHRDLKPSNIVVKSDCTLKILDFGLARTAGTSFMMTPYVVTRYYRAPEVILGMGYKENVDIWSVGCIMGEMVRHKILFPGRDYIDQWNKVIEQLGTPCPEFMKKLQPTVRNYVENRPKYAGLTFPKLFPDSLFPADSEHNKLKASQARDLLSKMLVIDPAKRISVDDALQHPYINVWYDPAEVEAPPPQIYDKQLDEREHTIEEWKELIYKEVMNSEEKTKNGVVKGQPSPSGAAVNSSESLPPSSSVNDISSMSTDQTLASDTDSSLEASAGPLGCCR

SMILES	residual activity (PRKCB2 (human))	residual activity (PRKCH (human))	residual activity (JAK2 JH1 JH2 (human))	residual activity (STK39 (human))	residual activity (MAPK10 (human))	residual activity (PAK4 (human))	residual activity (TBK1 (human))	residual activity (CSNK2A2 (human))	residual activity (PIM3 (human))	residual activity (NUAK1 (human))	residual activity (SIK2 (human))	residual activity (CSNK1G3 (human))	residual activity (CAMK2D (human))	residual activity (IRAK1 (human))	residual activity (CSNK1A1 (human))	residual activity (EPHB1 (human))	residual activity (TSSK2 (human))	residual activity (PAK7 (human))	residual activity (MAPKAPK5 (human))	residual activity (IKBKB (human))	also measured
O=c1cc(N2CCOCC2)oc2c1ccc1ccccc12	99.9%	94.7%	94.9%	95.7%	73.8%	108%	102%	78.6%	95.4%	90.1%	126%	98.1%	99.9%	112%	115%	104%	100%	108%	98.4%	105%	residual activity (PRKD2 (human)): 101%; residual activity (MAPK11 (human)): 97.9%; residual activity (CLK4 (human)): 101%; residual activity (ABL2 (human)): 101%; residual activity [1]: 104%; residual activity (ROCK2 (human)): 95.9%; residual activity (CDK4 CCND1 (human)): 95.6%; residual activity (STK17A (human)): 94.6%; residual activity (MARK4 (human)): 102%; residual activity (MAP3K11 (human)): 99.2%; residual activity (PRKCD (human)): 95.1%; residual activity (ROS1 (human)): 97%; residual activity (DYRK4 (human)): 91.9%; residual activity (ABL1 (human)): 104%; residual activity (CHEK1 (human)): 104%; residual activity (ROCK1 (human)): 94.2%; residual activity (DYRK1B (human)): 90.5%; residual activity (MAPK8 (human)): 97.2%; residual activity (MAPK3 (human)): 106%
CO[C@H]1CC2CC[C@@H](C)[C@@](O)(O2)C(=O)C(=O)N2CCCC[C@H]2C(=O)OC([C@H](C)C[C@@H]2CC[C@@H](O)[C@H](OC)C2)CC(=O)[C@H](C)/C=C(\C)[C@@H](O)[C@@H](OC)C(=O)[C@H](C)C[C@H](C)/C=C/C=C/C=C/1C (some centres not stated)	89.1%	104%	97.5%	97.9%	95.9%	97.1%	94.7%	94.2%	106%	101%	94.3%	108%	96.1%	118%	99.3%	110%	99.8%	106%	98%	109%	residual activity (PRKD2 (human)): 99%; residual activity (MAPK11 (human)): 113%; residual activity (CLK4 (human)): 116%; residual activity (ABL2 (human)): 94.2%; residual activity [1]: 103%; residual activity (ROCK2 (human)): 108%; residual activity (CDK4 CCND1 (human)): 115%; residual activity (STK17A (human)): 95.9%; residual activity (MARK4 (human)): 99.1%; residual activity (MAP3K11 (human)): 98.5%; residual activity (PRKCD (human)): 102%; residual activity (ROS1 (human)): 85%; residual activity (DYRK4 (human)): 99.8%; residual activity (ABL1 (human)): 103%; residual activity (CHEK1 (human)): 107%; residual activity (ROCK1 (human)): 103%; residual activity (DYRK1B (human)): 108%; residual activity (MAPK8 (human)): 100%; residual activity (MAPK3 (human)): 104%
Cc1ccc(S(=O)(=O)/C=C/C#N)cc1	104%	106%	99.5%	83.7%	107%	91.9%	83.9%	97.9%	93.6%	101%	106%	88.3%	102%	103%	95.6%	100%	103%	100%	88.9%	110%	residual activity (PRKD2 (human)): 98.1%; residual activity (MAPK11 (human)): 102%; residual activity (CLK4 (human)): 89.7%; residual activity (ABL2 (human)): 104%; residual activity [1]: 98.2%; residual activity (ROCK2 (human)): 99.1%; residual activity (CDK4 CCND1 (human)): 103%; residual activity (STK17A (human)): 97.8%; residual activity (MARK4 (human)): 99%; residual activity (MAP3K11 (human)): 98.2%; residual activity (PRKCD (human)): 95.6%; residual activity (ROS1 (human)): 94.1%; residual activity (DYRK4 (human)): 95.1%; residual activity (ABL1 (human)): 98.7%; residual activity (CHEK1 (human)): 97.5%; residual activity (ROCK1 (human)): 93.2%; residual activity (DYRK1B (human)): 101%; residual activity (MAPK8 (human)): 74.7%; residual activity (MAPK3 (human)): 98.2%

From the kinase profiling compilation of Christmann-Franck et al. (2016)
